Read-outs that look alike come from different tables or passages of the source.
Columns and labels:
Format in all cases: cell-based, Acinetobacter baumannii
AB5075 [1] = assay: Broth microdilution MIC of compound alone (standalone toxicity)
How it was run: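 A. baumannii 5075 subcultured to 5×10^5 CFU/mL in cation-adjusted Mueller-Hinton broth; compound twofold serially diluted from 200 μM (DMSO stock) and incubated stationary at 37° C for 16 h. MIC taken as lowest concentration with no visible growth; duplicates, repeated at least twice.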

AB5075 [2] = assay: Broth microdilution clarithromycin (CLR) potentiation and dose-response of adjuvant
How it was run: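 A. baumannii AB5075 at 5×10^5 CFU/mL in CAMHB with fixed adjuvant (DMSO ≤0.3%) and two-fold serially diluted clarithromycin or colistin, stationary 16 h at 37° C. MIC = lowest concentration without visible growth; fold reduction versus antibiotic alone. Dose-response used adjuvant at 0–30 μM.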

[3] = tested on: A. baumannii isolates (23 strains); assay: Clarithromycin potentiation against AB isolates; details: adjuvant at 10 μM
Description: Broth microdilution method for antibiotic potentiation. Day cultures (6 h) of bacteria in CAMHB were subcultured to 5×10^5 CFU/mL in CAMHB. Aliquots (4 mL) were placed in culture tubes and dosed with compound from 10 mM stock samples to give the desired concentration of the compound to be tested against the particular bacterial strain; this insured non-toxic DMSO concentrations ≤0.3% in each well. 1 mL of the resulting solution was placed in a separate culture and dosed with antibiotic at the highest concentration to be tested. Bacteria treated with antibiotic alone served as the control. Row one of a 96-well plate was filled with 200 μL of the antibiotic/2-AI solution, and rows 2-12 were filled with 100 μL each of the remaining 4 mL of bacterial subculture containing adjuvant at the desired concentration, except for the control lane which contained only bacterial subculture. Row one was then mixed five times, and 100 μL was transferred to row two, which was then mixed five times before being transferred to row three. This process was repeated until all rows had been mixed, except for row twelve which would have only 2-AI to serve as a control to monitor potential toxicity. The 96-well plate was then covered in Glad Press n'Seal and incubated under stationary conditions at 37° C. for 16 h. MIC values were determined as the lowest concentration at which no bacterial growth was observed, and fold reductions were determined by comparison to antibiotic control lane.

[4] = tested on: A. baumannii isolates (23 strains); assay: Minimum inhibitory concentration against AB isolates; details: Acinetobacter baumannii, compound alone
Description: Broth microdilution method for MIC determination. Day cultures (6 h) of each bacterial strain in cation adjusted Mueller Hinton II broth (CAMHB, Fisher Scientific U.S.) were subcultured to 5×10^5 CFU/mL in CAMHB. Aliquots (1 mL) were placed in culture tubes and compound was added from 10 mM stock samples in DMSO, such that compound concentration equaled highest concentration tested (200 μM). Samples were then aliquoted (200 μL) into the first wells of a 96-well plate, with all remaining wells being filled with 100 μL of initial bacterial subculture. Row one wells were mixed five times, before 100 μL was transferred to row two. Row two was then mixed five times, and 100 μL was transferred to row three. This process was repeated until the final row had been mixed; this served to serially dilute the compound. Plates were then covered with GLAD Press n'Seal and incubated under stationary conditions at 37° C. for 16 h. MIC values were then recorded as the lowest concentration at which no bacterial growth was observed.

Cl.Nc1nc(-c2ccc(NC(=O)c3ccc(Cl)c(Cl)c3)cc2F)c[nH]1 [Compound 15b, N-(4-(2-amino-1H-imidazol-4-yl)-3-fluorophenyl)-3,4-dichlorobenzamide hydrochloride]
MIC (AB5075 [1]; Acinetobacter baumannii): > 200 µM
MIC (AB5075 [1]; hydrochloride): >200 µM
CLR MIC (AB5075 [2]; compound tested at 5 μM): 8 µg/mL
Fold Reduction of CLR MIC (AB5075 [2]; compound tested at 5 μM): 4 fold
CLR MIC (AB5075 [2]; compound tested at 7.5 μM): 1 µg/mL
Fold Reduction of CLR MIC (AB5075 [2]; compound tested at 7.5 μM): 32 fold
CLR MIC (AB5075 [2]; compound tested at 10 μM): 0.5 µg/mL
Fold Reduction of CLR MIC (AB5075 [2]; compound tested at 10 μM): 64 fold
CLR MIC (AB5075 [2]; compound tested at 20 μM): 0.5 µg/mL
Fold Reduction of CLR MIC (AB5075 [2]; compound tested at 20 μM): 64 fold
CLR MIC (AB5075 [2]; compound tested at 30 μM): 0.5 µg/mL
Fold Reduction of CLR MIC (AB5075 [2]; compound tested at 30 μM): 64 fold
CLR MIC + adjuvant ([3]; A. baumannii strain 3560): 2 µg/mL
CLR MIC + adjuvant ([3]; A. baumannii strain 3785): 4 µg/mL
CLR MIC + adjuvant ([3]; A. baumannii strain 3806): 0.5 µg/mL
CLR MIC + adjuvant ([3]; A. baumannii strain 3927): 2 µg/mL
CLR MIC + adjuvant ([3]; A. baumannii strain 4025): 1 µg/mL
CLR MIC + adjuvant ([3]; A. baumannii strain 4026): 4 µg/mL
CLR MIC + adjuvant ([3]; A. baumannii strain 4027): 1 µg/mL
CLR MIC + adjuvant ([3]; A. baumannii strain 4052): 1 µg/mL
CLR MIC + adjuvant ([3]; A. baumannii strain 4269): 2 µg/mL
CLR MIC + adjuvant ([3]; A. baumannii strain 4448): 2 µg/mL
CLR MIC + adjuvant ([3]; A. baumannii strain 4456): 2 µg/mL
CLR MIC + adjuvant ([3]; A. baumannii strain 4490): 2 µg/mL
CLR MIC + adjuvant ([3]; A. baumannii strain 4498): 2 µg/mL
CLR MIC + adjuvant ([3]; A. baumannii strain 4795): 2 µg/mL
CLR MIC + adjuvant ([3]; A. baumannii strain 4857): 1 µg/mL
CLR MIC + adjuvant ([3]; A. baumannii strain 4878): 2 µg/mL
CLR MIC + adjuvant ([3]; A. baumannii strain 4957): 4 µg/mL
CLR MIC + adjuvant ([3]; A. baumannii strain 4991): 2 µg/mL
CLR MIC + adjuvant ([3]; A. baumannii strain 5001): 4 µg/mL
CLR MIC + adjuvant ([3]; A. baumannii strain 5197): 2 µg/mL
CLR MIC + adjuvant ([3]; A. baumannii strain 5256): 1 µg/mL
CLR MIC + adjuvant ([3]; A. baumannii strain 5711): 4 µg/mL
CLR MIC + adjuvant ([3]; A. baumannii strain 8967): 1 µg/mL
MIC ([4]; A. baumannii strain 3560, read-out: Minimum inhibitory concentration of compound): 50 µM
MIC ([4]; A. baumannii strain 3785, read-out: Minimum inhibitory concentration of compound): 200 µM
MIC ([4]; A. baumannii strain 3806, read-out: Minimum inhibitory concentration of compound): 200 µM
MIC ([4]; A. baumannii strain 3927, read-out: Minimum inhibitory concentration of compound): > 200 µM
MIC ([4]; A. baumannii strain 4025, read-out: Minimum inhibitory concentration of compound): 100 µM
MIC ([4]; A. baumannii strain 4026, read-out: Minimum inhibitory concentration of compound): 100 µM
MIC ([4]; A. baumannii strain 4027, read-out: Minimum inhibitory concentration of compound): 200 µM
MIC ([4]; A. baumannii strain 4052, read-out: Minimum inhibitory concentration of compound): > 200 µM
MIC ([4]; A. baumannii strain 4269, read-out: Minimum inhibitory concentration of compound): > 200 µM
MIC ([4]; A. baumannii strain 4448, read-out: Minimum inhibitory concentration of compound): > 200 µM
MIC ([4]; A. baumannii strain 4456, read-out: Minimum inhibitory concentration of compound): 50 µM
MIC ([4]; A. baumannii strain 4490, read-out: Minimum inhibitory concentration of compound): > 200 µM
MIC ([4]; A. baumannii strain 4498, read-out: Minimum inhibitory concentration of compound): 100 µM
MIC ([4]; A. baumannii strain 4795, read-out: Minimum inhibitory concentration of compound): 100 µM
MIC ([4]; A. baumannii strain 4857, read-out: Minimum inhibitory concentration of compound): 50 µM
MIC ([4]; A. baumannii strain 4878, read-out: Minimum inhibitory concentration of compound): 200 µM
MIC ([4]; A. baumannii strain 4957, read-out: Minimum inhibitory concentration of compound): > 200 µM
MIC ([4]; A. baumannii strain 4991, read-out: Minimum inhibitory concentration of compound): > 200 µM
MIC ([4]; A. baumannii strain 5001, read-out: Minimum inhibitory concentration of compound): > 200 µM
MIC ([4]; A. baumannii strain 5197, read-out: Minimum inhibitory concentration of compound): > 200 µM
MIC ([4]; A. baumannii strain 5256, read-out: Minimum inhibitory concentration of compound): > 200 µM
MIC ([4]; A. baumannii strain 5711, read-out: Minimum inhibitory concentration of compound): > 200 µM
MIC ([4]; A. baumannii strain 8967, read-out: Minimum inhibitory concentration of compound): > 200 µM
MIC ([4]; remaining 20 strains, read-out: MIC values): ≥ 100 µM
MIC ([4]; three of the AB isolates, read-out: MIC values): 50 µM

— patent US12559461B2, “Antibiotic adjuvant compounds” (UNIVERSITY OF NOTRE DAME DU LAC, priority 2020, dated 2026)
